Assay results taken from publication PMC11874007, “Switching Roles—Exploring Concentration-Dependent Agonistic versus Antagonistic Behavior of Integrin Ligands” (Journal of Medicinal Chemistry, 2025).
Read-outs that look alike come from different tables or passages of the source. Non-standard residues stand in square brackets, D forms with d. Chg = N[C@H](C(=O)O)C1CCCCC1; NMeV = CN[C@H](C(=O)O)C(C)C

Tests used:
human αvβ3-integrin = target: T1, human αvβ3-integrin (Homo sapiens, UniProt P05106+P06756); assay: ELISA-type solid-phase binding assay: soluble αvβ3 competing for immobilized vitronectin; details: competitive ELISA-type assay, referenced to internal standard cilengitide (L2)
T1 construct: purchased R&D 3050-AV-050

human α5β1-integrin = target: T2, human α5β1-integrin (Homo sapiens, UniProt P05556+P08648); assay: ELISA-type solid-phase binding assay: soluble α5β1 competing for immobilized fibronectin
T2 construct: purchased R&D 3230-A5-050
Experimental: Prior to the biological evaluation of the ligands, their specificity and subtype-selective affinity was analyzed by an ELISA (enzyme-linked immune sorbent assay)-type solid-phase ligand binding assay[59] by measuring the competitive binding of soluble purified integrins in the presence of the respective ligands to plate-immobilized purified ECM proteins, as described in Experimental Section: vitronectin (for αvβ3-directed ligands), fibronectin (for α5β1-directed ligands), or the latency-associated peptide (LAP) of transforming growth factor-β (TGF-β) (for αvβ6-directed ligands). Then, we determined whether Cy5.5 conjugation of ligands led to altered ligand binding affinities and integrin subtype selectivity compared to the unlabeled compounds. In the following, we describe in detail the alterations detected.
(3) 2.0 μg/mL mouse-anti-human CD51/61 (BD Biosciences, Franklin Lakes, New Jersey, USA; #555504). (4) 2.0 μg/mL anti-mouse IgG-POD (Sigma-Aldrich, #A9044-2ML). Integrin αvβ6: (1) 0.4 μg/mL LAP (TGF-β) (R&D, #246-LP-025), (2) 0.5 μg/mL human αvβ6 (R&D, #3817-AV-050), (3) 1:500 dilution mouse-anti-human αv (MAB1978) (Merck Millipore, #MAB1978), (4) 2.0 μg/mL anti-mouse IgG-POD (Sigma-Aldrich, #A9044-2ML). Integrin α5β1: (1) 0.5 μg/mL human fibronectin (Sigma-Aldrich, #F0895-1MG), (2) 2.0 μg/mL human α5β1 (R&D, 3230-A5-050), (3) 1.0 μg/mL mouse-anti-human CD49e (BD Biosciences, #555651), (4) 2.0 μg/mL anti-mouse IgG-POD (Sigma-Aldrich, #A9044-2 ML). For Western blot analysis, the following antibodies were used: (p-)p44/42^(erk-1/2) (1) 1:300 dilution of rabbit-anti-human p44/42^(erk-1/2) antibody (Cell Signaling Technology, Frankfurt, Germany, #9102) in 3% (w/v) bovine serum albumin (BSA)/TBS-T, (2) 1:5,000 dilution goat-anti-rabbit horseradish-conjugated secondary antibody in 1% (w/v) BSA/TBS-T. Phospho-p44/42^(erk-1/2): (1) 1:200 dilution rabbit-anti-human p44/42^(erk-1/2) (Thr202/Tyr204) antibody (Cell Signaling Technology, #9101) in 3% (w/v) BSA/TBS-T, (2) 1:5,000 dilution goat-anti-rabbit horseradish-conjugated secondary antibody in 1% (w/v) BSA/TBS-T. FAK: (1) 1:300 dilution mouse-anti-human FAK antibody (Cell Signaling Technology, #9102) in 3% (w/v) BSA/TBS-T, (2) 1:5,000 dilution goat-anti-mouse horseradish-conjugated secondary antibody in 1% (w/v) BSA/TBS-T. Phospho-FAK: (1) 1:300 dilution mouse-anti-human p-FAK antibody (Cell Signaling Technology) in 3% (w/v) BSA/TBS-T, (2) 1:5,000 dilution goat-antimouse horseradish-conjugated secondary antibody in 1% (w/v) BSA/TBS-T. Differences in blotting efficiency and protein loading were normalized by using a primary antibody against glyceraldehyde-3-phosphate dehydrogenase (GAPDH, 1:10,000 dilution in 1% (w/v) BSA/TBS-T, at RT for 45 min (Millipore, Schwalbach, Germany) and a secondary horseradish-conjugated goat-anti-mouse antibody (1:10,000 dilution in 1% (w/v) BSA/TBS-T, 40 min at RT).
The integrin binding assay was done to assess the specificity and subtype-selective affinity of L1–L5 and their respective Cy5.5-conjugated ligands by using isolated and purified integrins in cell-free ligand binding assays, as previously published.[59]Table 2 summarizes the used ECM ligands, integrins, and antibodies. In brief, flat-bottom 96-well plates were coated overnight at 4 °C with the natural ECM integrin ligands, vitronectin (for αvβ3-directed ligands), fibronectin (for α5β1-directed ligands), or LAP of TGF-β1 (for αvβ6-directed ligands) (100 μL/well in buffer containing 15 mM Na2CO3, 35 mM NaHCO3, pH 9.6). Subsequently, each well was washed in PBS, 0.01% (v/v) Tween 20, 137 mM NaCl, 2.7 mM KCl, 10 mM Na2HPO4, 2 mM KH2PO4, pH 7.4 (PBS-T), and blocked for unspecific binding events for 1 h at RT in 20 mM Tris–HCl, pH 7.5, 150 mM NaCl, 1 mM CaCl2, 1 mM MgCl2, 1 mM MnCl2, and 1% (w/v) BSA. Meanwhile, dilution series of the different integrin ligands and the internal standards were prepared, ranging from 20 μM to 256 pM in 1:5 dilution steps. […]

human αvβ6-integrin [1] = target: T3, human αvβ6-integrin (Homo sapiens, UniProt P06756+P18564); assay: ELISA-type solid-phase binding assay: soluble αvβ6 competing for immobilized LAP (TGF-β); details: competitive ELISA-type assay, referenced to internal standard RTDLDSLRT
T3 construct: purchased R&D 3817-AV-050

αvβ6- OV-MZ-6 cells = assay: Cellular uptake of Cy5.5-labeled ligands, OV-MZ-6 control cells; assay type: cell-based; details: 1 μM Cy5.5-labeled ligand
Experimental: (§1) For intracellular drug delivery, integrin ligands designed as drug-conjugated vehicles have to be easily and selectively internalized by tumor cells (over)expressing the respective targeted integrin subtype. […] It should be noted here that HN, OV-MZ-6, and RKO cells also express low αvβ3 expression levels.
(§2) Microchamber cell culture slides were coated with fibronectin (2 μg/mL), followed by cell seeding at a density of 50,000 cells/well. After 24 h of cultivation, cells were treated with integrin ligands L1-Cy5.5 to L5-Cy5.5 (1 μM in 0.01% (w/v) CaCl2 and 0.1% (w/v) BSA in PBS; 250 μL/well) for 3, 30, 60, or 300 min at 37 °C. The cells were washed in PBS/0.01% (w/v) CaCl2 (6 × 800 μL) and the fluorescence signal intensity recorded using the LSM 700 microscope (Zeiss, Jena, Germany). CellMask Green Plasma Membrane Stain was used to stain the cell membrane; nuclei were stained with Hoechst 33342.

HN cells (αvβ6+) = assay: Time-dependent cellular uptake of Cy5.5-labeled ligands, HN cells; assay type: cell-based; details: 1 μM, within 3 min
Text: as §1
(§3) Figure 7 Cellular uptake of Cy5.5-labeled integrin ligands. […] Nuclei were costained with Hoechst 33342 (blue signal) and cell membranes with CellMask Green (green signal). Merge of stains (yellow signal) indicated colocalization of ligands at the cell membrane. Scale bar: 50 μm.
as §2

[2] = target: human α5β1-integrin (human) (UniProt P08648); assay: ELISA; competitive ELISA-type solid-phase assay: human fibronectin (0.5 μg/mL) coated on the plate overnight at 4 °C, soluble human α5β1 (2.0 μg/mL) added with a dilution series of the ligand (20 μM to 256 pM), 1 h at RT; blocked in 20 mM Tris-HCl pH 7.5, 150 mM NaCl, 1 mM CaCl2, 1 mM MgCl2, 1 mM MnCl2, 1% BSA; bound integrin detected with anti-CD49e; IC50 referenced to cilengitide
[3] = tested on: M21 (αvβ3+), HN (αvβ6+), RKO (α5β1+) cells; assay: Time-dependent cellular uptake of Cy5.5-labeled ligands in cells overexpressing the targeted integrin; assay type: cell-based; details: state within 30 min, Cy5.5-conjugated ligands, target integrin-expressing cells
Text: as §1, §3, §2

[4] = target: human α5β1-integrin (human) (UniProt P08648)
human αvβ6-integrin [5] = target: T4, human αvβ6-integrin (human, UniProt P06756 31-1048; P18564 22-709); assay: ELISA; competitive ELISA-type solid-phase assay: LAP of TGF-β1 (0.4 μg/mL) coated on the plate overnight at 4 °C, soluble human αvβ6 (0.5 μg/mL) added with a dilution series of the ligand (20 μM to 256 pM), 1 h at RT; blocked in 20 mM Tris-HCl pH 7.5, 150 mM NaCl, 1 mM CaCl2, 1 mM MgCl2, 1 mM MnCl2, 1% BSA; bound integrin detected with anti-αv; IC50 referenced to …; details: both partners purified
T4 construct: integrin alpha-V, human, chain of the soluble purified αvβ6 heterodimer; integrin beta-6, human, chain of the soluble purified αvβ6 heterodimer; also called integrin αvβ6; source: bought: R&D, #3817-AV-050

[6] = competitive ELISA-type assay, referenced to internal standard cilengitide (L2)

Molecule: COc1ccnc(NCCCOc2ccc(C[C@@H](CC(=O)O)NC(=O)c3ccc(OCCCNC(=O)CCCCCNC(=O)CCCCC[N+]4=C(/C=C/C=C/C=C5/N(C)c6ccc7ccccc7c6C5(C)C)C(C)(C)c5c4ccc4ccccc54)cc3)cc2)c1 [L1-Cy5.5]
- IC50 (human αvβ3-integrin): 1.02 ± 0.02 nM
- IC50 (human α5β1-integrin; [6]): > 1000 nM
- IC50 (human αvβ6-integrin [1]): > 1000 nM
- Binding / intracellular uptake in control cells (αvβ6- OV-MZ-6 cells): only minor intracellular traces

Molecule: CC(C)C[C@@H]1NC(=O)[C@H](CC(=O)O)NC(=O)CNC(=O)[C@H](CCCNC(=N)N)NC(=O)[C@H](Cc2ccccc2)NC(=O)[C@H](CCCCNC(=O)CCCCCNC(=O)CCCCC[N+]2=C(/C=C/C=C/C=C3/N(C)c4ccc5ccccc5c4C3(C)C)C(C)(C)c3c2ccc2ccccc32)N(C)C(=O)[C@H]2CCCN2C(=O)[C@H](Cc2ccccc2)NC(=O)[C@H](C)NC1=O [L3-Cy5.5]
- IC50 (human α5β1-integrin; [6]): > 1000 nM
- Localization of Cy5.5-labeled ligand (HN cells (αvβ6+)): already intracellularly visible
- Binding / intracellular uptake in control cells (αvβ6- OV-MZ-6 cells): did not bind

Molecule: CN1/C(=C/C=C/C=C/C2=[N+](CCCCCC(=O)NCCCCCC(=O)N[C@@H](CCCCNC(=O)[C@@H]3CCC(=O)N[C@@H](CCCNC(=N)N)C(=O)NCC(=O)N[C@@H](CC(=O)O)C(=O)N[C@@H](C4CCCCC4)C(=O)N3)C(N)=O)c3ccc4ccccc4c3C2(C)C)C(C)(C)c2c1ccc1ccccc21 [L4-Cy5.5]
- IC50 (human α5β1-integrin): > 1000 nM
- Binding / intracellular uptake in control cells (αvβ6- OV-MZ-6 cells): did not bind

Molecule: Cc1cc(OCCCNC(=O)CCCCCNC(=O)CCCCC[N+]2=C(/C=C/C=C/C=C3/N(C)c4ccc5ccccc5c4C3(C)C)C(C)(C)c3c2ccc2ccccc32)cc(C)c1C(=O)N[C@@H](CNC(=O)CNC(=O)c1cccc(NC(=N)N)c1)C(=O)O [L5-Cy5.5]
- IC50 (human αvβ3-integrin): > 1000 nM
- IC50 (human α5β1-integrin; [6]): 4.69 ± 1 nM
- IC50 (human αvβ6-integrin [1]): 154 ± 136 nM

Molecule: L3-Cy5.5, the Cy5.5 conjugate of c(FRGDLAFp(NMe)K) (L3) (peptide)
- IC50 [2]: > 1000 nM

Molecule: L4-Cy5.5, the Cy5.5 conjugate of c(RGD-Chg-isoE)-CONH2 (L4) (peptide)
- IC50 [2]: > 1000 nM

Molecule: c(RGD-Chg-isoE)-CONH2 [L4]
- Endocytosis of Cy5.5-conjugated ligand [3]: already completed

Molecule: cyclo(RGD[dF][NMeV]) [cilengitide, c(RGDf(NMe)V) (L2)]
- p-FAK level by Western blot in OV-MZ-6 cells (low αvβ3, α5β1+) with 1 nM cilengitide, 5 to 60 min [4]: 2.2 fold

B1: L4-Cy5.5, the Cy5.5 conjugate of c(RGD-Chg-isoE)-CONH2 (L4) (peptide)
chain: cyclo(RGD[Chg][isoE])
modifications: not fully specified (C-terminus); printed as c(RGD-Chg-isoE)-CONH2; also: Cy5.5 attached via Ahx linker, site not given here
- IC50 (human αvβ6-integrin [5]): 7.63 ± 0.83 nM
